# In paper PMC6407913, “DREADD Agonist 21 Is an Effective Agonist for Muscarinic-Based DREADDs in Vitro and in Vivo” (ACS Pharmacology & Translational Science, 2018):
# Where “and” joins values, the source holds several entries; their conditions need not be identical. Equal values may be shown once. Read-outs that look alike come from different tables or passages of the source.
# How the values were obtained:
# hM4Di [1] = molecular target: T1, hM4Di (Homo sapiens, UniProt P08173, A203G/Y113C); test: inhibition of isoproterenol-stimulated cAMP production; assay type: cell-based; set-up: expressed in transfected cells; settings: inhibition of isoproterenol elevated cAMP, mean (±SEM)
# T1 sequence (P08173 1-479 Y113C/A203G): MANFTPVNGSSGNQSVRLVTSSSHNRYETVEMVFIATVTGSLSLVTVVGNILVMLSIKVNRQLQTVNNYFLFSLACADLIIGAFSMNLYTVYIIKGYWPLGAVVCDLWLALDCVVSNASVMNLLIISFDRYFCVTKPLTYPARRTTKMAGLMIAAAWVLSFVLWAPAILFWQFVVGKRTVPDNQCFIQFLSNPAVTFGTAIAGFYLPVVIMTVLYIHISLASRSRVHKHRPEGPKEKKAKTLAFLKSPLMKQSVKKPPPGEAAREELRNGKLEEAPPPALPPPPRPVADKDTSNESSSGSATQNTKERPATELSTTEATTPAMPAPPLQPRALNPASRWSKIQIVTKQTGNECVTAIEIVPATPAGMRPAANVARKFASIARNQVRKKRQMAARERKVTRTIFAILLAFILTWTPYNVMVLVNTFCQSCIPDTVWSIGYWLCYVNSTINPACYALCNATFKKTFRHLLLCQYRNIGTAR
# M5 = M5 (Homo sapiens, UniProt P08912); test: NIMH PDSP radioligand binding, membranes
# Sequence of M5 (P08912 whole entry): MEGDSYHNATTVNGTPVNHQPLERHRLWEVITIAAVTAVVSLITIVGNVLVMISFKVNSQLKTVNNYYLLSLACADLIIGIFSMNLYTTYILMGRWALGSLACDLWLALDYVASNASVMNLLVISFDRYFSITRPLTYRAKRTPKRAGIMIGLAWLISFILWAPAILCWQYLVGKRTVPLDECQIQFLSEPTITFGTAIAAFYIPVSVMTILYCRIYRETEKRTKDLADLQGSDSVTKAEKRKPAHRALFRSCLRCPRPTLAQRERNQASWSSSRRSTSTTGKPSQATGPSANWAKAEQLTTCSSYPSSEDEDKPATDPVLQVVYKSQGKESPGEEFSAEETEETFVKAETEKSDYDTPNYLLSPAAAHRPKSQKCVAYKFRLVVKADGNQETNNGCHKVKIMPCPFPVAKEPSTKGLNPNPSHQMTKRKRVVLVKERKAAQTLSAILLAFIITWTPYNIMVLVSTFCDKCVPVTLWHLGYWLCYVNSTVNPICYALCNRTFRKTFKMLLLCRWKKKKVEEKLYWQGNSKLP
# Experimental: (§1) Radioligand binding assays with membrane preparations to determine binding affinity were carried out as outlined before[540] and by the National Institute of Mental Health’s Psychoactive Drug Screening Program (NIMH PDSP) (https://pdsp.unc.edu/), Contract # HHSN-271–2013–00017-C. The NIMH PDSP is Directed by B.L.R. at the University of North Carolina at Chapel Hill, Chapel Hill, NC, and Project Officer Jamie Driscoll at NIMH, Bethesda, MD.
# H2 = H2 (Homo sapiens, UniProt P25021); test: NIMH PDSP radioligand binding, membranes
# Sequence of H2 (P25021 whole entry): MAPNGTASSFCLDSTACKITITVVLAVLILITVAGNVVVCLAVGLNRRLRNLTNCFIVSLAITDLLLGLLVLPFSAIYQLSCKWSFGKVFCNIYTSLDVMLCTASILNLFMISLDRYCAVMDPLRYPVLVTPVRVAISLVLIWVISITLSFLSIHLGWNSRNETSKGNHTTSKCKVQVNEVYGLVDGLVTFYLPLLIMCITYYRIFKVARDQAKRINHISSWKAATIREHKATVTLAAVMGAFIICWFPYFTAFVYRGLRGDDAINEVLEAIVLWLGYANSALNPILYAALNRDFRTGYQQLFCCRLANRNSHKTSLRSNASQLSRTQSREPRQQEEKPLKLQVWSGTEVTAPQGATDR
# Experimental: as §1
# 5-HT7 = molecular target: T2, 5-HT7 (Homo sapiens, UniProt P34969); test: NIMH PDSP radioligand binding, membranes
# T2 construct: NIMH PDSP
# T2 sequence (P34969 whole entry, species assumed): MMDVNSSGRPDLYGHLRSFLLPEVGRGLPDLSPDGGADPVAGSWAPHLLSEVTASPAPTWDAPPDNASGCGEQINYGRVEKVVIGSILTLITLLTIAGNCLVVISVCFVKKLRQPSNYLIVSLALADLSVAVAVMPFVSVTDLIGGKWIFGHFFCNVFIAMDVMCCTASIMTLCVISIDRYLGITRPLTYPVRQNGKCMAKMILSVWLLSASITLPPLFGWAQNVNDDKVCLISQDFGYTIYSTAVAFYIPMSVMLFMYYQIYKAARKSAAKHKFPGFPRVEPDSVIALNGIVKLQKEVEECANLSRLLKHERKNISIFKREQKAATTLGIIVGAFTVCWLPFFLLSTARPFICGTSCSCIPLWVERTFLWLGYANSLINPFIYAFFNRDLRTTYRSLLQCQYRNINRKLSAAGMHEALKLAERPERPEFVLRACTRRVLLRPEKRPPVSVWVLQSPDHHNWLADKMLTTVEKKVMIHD
# Experimental: as §1
# 5-HT1B = molecular target: T3, 5-HT1B (Homo sapiens, UniProt P28222); test: NIMH PDSP radioligand binding, membranes
# T3 construct: NIMH PDSP
# T3 sequence (P28222 whole entry, species assumed): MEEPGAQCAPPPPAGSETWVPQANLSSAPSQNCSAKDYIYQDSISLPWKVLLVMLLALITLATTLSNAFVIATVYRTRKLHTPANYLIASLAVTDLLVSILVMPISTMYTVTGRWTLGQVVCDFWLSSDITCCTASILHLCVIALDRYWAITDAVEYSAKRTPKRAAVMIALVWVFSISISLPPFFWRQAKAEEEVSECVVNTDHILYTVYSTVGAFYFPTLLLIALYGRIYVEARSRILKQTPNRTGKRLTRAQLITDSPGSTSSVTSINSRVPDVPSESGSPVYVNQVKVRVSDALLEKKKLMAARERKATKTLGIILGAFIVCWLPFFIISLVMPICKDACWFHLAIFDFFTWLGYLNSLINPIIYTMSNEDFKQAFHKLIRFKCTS
# Experimental: as §1
# Beta3 = molecular target: T4, Beta3 (Homo sapiens, UniProt P13945); test: NIMH PDSP radioligand binding, membranes
# T4 construct: NIMH PDSP
# T4 sequence (P13945 whole entry): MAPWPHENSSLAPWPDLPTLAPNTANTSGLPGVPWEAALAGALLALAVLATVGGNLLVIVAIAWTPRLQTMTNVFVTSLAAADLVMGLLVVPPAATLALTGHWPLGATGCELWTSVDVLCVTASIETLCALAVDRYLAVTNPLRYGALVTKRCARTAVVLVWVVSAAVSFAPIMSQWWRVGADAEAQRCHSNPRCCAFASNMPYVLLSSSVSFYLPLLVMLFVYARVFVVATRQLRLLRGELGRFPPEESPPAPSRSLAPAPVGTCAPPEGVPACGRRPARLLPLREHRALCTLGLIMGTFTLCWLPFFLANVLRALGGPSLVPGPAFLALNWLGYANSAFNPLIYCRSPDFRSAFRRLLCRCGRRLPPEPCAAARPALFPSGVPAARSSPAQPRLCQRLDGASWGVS
# Experimental: as §1
# Beta2 = Beta2 (Homo sapiens, UniProt P07550); test: NIMH PDSP radioligand binding, membranes
# Sequence of Beta2 (P07550 whole entry): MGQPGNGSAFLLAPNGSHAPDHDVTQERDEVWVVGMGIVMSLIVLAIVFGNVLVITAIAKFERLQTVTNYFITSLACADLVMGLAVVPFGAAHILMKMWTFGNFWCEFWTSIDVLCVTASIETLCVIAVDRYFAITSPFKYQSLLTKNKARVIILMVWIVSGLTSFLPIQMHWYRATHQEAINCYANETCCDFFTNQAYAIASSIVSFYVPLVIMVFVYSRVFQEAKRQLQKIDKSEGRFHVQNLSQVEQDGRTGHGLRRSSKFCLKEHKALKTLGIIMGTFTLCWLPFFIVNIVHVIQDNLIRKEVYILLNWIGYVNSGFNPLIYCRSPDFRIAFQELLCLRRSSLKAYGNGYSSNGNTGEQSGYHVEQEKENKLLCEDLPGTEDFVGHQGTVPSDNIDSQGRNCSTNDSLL
# Experimental: as §1
# CB2 = molecular target: T5, CB2 (Homo sapiens, UniProt P34972); test: NIMH PDSP radioligand binding, membranes
# T5 construct: NIMH PDSP
# T5 sequence (P34972 whole entry, species assumed): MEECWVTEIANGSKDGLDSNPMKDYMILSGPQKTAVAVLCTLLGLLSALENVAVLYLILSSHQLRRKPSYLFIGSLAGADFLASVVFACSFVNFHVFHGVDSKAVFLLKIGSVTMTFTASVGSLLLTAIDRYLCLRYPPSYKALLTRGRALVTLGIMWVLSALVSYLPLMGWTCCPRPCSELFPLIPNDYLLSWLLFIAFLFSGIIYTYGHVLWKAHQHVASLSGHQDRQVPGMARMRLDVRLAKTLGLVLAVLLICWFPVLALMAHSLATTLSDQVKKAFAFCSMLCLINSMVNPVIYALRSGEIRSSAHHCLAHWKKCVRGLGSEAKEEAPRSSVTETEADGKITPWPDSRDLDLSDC
# Experimental: as §1
# 5-HT2C = molecular target: T6, 5-HT2C (Homo sapiens, UniProt P28335); test: NIMH PDSP radioligand binding, membranes
# T6 sequence (P28335 33-458): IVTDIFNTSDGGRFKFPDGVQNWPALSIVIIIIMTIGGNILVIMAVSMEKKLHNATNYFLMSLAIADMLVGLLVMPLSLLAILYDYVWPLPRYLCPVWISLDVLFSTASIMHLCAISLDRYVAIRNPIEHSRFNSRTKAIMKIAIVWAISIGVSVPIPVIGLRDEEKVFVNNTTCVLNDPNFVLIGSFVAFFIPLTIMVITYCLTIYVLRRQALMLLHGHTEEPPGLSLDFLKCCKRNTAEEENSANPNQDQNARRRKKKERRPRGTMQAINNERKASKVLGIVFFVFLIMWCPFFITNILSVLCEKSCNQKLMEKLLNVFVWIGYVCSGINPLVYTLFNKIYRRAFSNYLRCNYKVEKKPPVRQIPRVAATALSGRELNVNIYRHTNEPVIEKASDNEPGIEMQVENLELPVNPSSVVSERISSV
# Experimental: as §1
# 5-HT4 = molecular target: T7, 5-HT4 (Homo sapiens, UniProt Q13639); test: NIMH PDSP radioligand binding, membranes
# T7 construct: NIMH PDSP
# T7 sequence (Q13639 whole entry, species assumed): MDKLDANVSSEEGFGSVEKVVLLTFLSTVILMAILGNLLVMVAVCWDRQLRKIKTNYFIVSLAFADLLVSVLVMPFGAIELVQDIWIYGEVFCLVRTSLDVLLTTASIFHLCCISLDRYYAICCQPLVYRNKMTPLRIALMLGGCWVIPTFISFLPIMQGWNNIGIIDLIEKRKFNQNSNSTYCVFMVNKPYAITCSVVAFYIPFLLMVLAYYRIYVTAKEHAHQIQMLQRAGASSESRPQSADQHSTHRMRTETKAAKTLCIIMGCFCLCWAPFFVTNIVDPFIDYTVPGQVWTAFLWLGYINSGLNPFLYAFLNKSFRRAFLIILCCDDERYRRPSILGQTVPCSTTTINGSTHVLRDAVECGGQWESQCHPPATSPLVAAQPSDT
# Experimental: as §1
# DOR = DOR (Homo sapiens, UniProt P41143); test: NIMH PDSP radioligand binding, membranes
# Sequence of DOR (P41143 whole entry): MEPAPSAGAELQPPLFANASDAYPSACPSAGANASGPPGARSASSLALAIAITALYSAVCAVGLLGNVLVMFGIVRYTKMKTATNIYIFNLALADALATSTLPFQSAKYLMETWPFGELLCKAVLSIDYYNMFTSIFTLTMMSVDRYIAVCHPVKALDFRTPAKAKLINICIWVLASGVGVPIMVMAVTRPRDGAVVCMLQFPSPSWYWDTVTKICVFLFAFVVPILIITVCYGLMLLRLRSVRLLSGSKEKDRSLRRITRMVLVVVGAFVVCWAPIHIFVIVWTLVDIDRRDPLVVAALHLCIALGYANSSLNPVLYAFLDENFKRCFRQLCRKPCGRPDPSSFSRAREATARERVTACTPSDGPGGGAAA
# Experimental: as §1
# 5-HT1D = 5-HT1D (Homo sapiens, UniProt P28221); test: NIMH PDSP radioligand binding, membranes
# Sequence of 5-HT1D (P28221 whole entry, species assumed): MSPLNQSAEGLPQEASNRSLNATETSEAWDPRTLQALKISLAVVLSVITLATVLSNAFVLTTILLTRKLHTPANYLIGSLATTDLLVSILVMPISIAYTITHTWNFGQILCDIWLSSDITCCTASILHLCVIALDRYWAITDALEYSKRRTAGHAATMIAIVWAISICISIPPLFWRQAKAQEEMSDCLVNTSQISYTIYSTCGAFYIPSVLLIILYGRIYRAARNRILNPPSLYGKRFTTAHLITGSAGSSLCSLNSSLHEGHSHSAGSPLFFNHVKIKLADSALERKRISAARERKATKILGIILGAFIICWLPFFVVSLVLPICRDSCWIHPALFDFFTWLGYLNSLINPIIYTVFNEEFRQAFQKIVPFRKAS
# Experimental: as §1
# hM3Dq in LH-vGAT neurons = test: food intake, hM3Dq in LH-vGAT neurons; assay type: in vivo, mice; settings: 0.3, 1.0, 3.0 mg/kg
# hM4Di [2] = molecular target: T1, hM4Di; test: whole-cell [3H]NMS competition binding
# hM1Dq = molecular target: T8, hM1Dq (Homo sapiens, UniProt P11229, A196G/Y106C); test: IP-One accumulation assay
# T8 sequence (P11229 1-460 Y106C/A196G): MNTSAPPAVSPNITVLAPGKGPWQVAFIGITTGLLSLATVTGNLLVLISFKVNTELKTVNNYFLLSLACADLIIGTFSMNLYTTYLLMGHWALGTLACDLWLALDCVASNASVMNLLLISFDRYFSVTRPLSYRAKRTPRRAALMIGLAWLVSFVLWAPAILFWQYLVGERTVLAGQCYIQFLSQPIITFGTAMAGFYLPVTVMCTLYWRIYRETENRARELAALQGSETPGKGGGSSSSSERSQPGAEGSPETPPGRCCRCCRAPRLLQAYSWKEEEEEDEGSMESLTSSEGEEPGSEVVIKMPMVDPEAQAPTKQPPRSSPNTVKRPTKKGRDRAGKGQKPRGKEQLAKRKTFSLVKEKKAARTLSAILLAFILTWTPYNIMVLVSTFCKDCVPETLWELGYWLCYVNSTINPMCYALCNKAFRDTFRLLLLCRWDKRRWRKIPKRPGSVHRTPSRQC
# [3] = read-out: Ki #1-#5 (individual assays)
# [4] = read-out: log Ki (individual assays) (converted)
smiles,measurement,setting,value
"c1ccc2c(c1)N=C(N1CCNCC1)c1ccccc1N2 [C21, 11-(1-piperazinyl)-5H-dibenzo[b,e][1,4]diazepine]",EC50,hM4Di [1],17.8 nM
same,Ki,M5; read-out: Ki,421 nM
same,Ki,M5; [3],175 nM and 395 nM and 1080 nM
same,Ki,H2; read-out: Ki,289 nM
same,Ki,H2; [3],257 nM and 511 nM and 184 nM
same,Ki,5-HT7; read-out: Ki,107 nM
same,Ki,5-HT7; [3],104 nM and 77 nM and 152 nM
same,Ki,5-HT1B; read-out: Ki,3640 nM
same,Ki,5-HT1B; [3],4590 nM and 4530 nM and 2320 nM
same,Ki,5-HT1B; [4],4570 nM
same,Ki,Beta3; read-out: Ki,> 10000 nM
same,Ki,Beta3; [3],> 10000 nM
same,Ki,Beta2; read-out: Ki,> 10000 nM
same,Ki,Beta2; [3],> 10000 nM
same,Ki,CB2; read-out: Ki,> 10000 nM
same,Ki,CB2; [3],> 10000 nM
same,Ki,5-HT2C; read-out: Ki,47.9 nM
same,Ki,5-HT2C; [3],48.2 nM and 57 nM
same,Ki,5-HT2C; [4],39.8 nM
same,Ki,5-HT4; read-out: Ki,> 10000 nM
same,Ki,5-HT4; [3],> 10000 nM
same,Ki,DOR; read-out: Ki,387 nM
same,Ki,DOR; [3],685 nM and 241 nM and 373 nM and 363 nM
same,Ki,5-HT1D; read-out: Ki,972 nM
same,Ki,5-HT1D; [3],1190 nM and 785 nM and 983 nM
same,food intake,hM3Dq in LH-vGAT neurons,drives feeding in a dose-dependent fashion
same,Ki,hM4Di [2],178 nM
same,higher binding affinity at hM4Di than at wildtype hM4,hM4Di [2]; hM4Di vs hM4,> 10 fold
same,EC50,hM1Dq,1.23 nM
